# How the values were obtained:
# [1] = tested on: PBMCs; assay: Targeted vs spontaneous uptake of pp65 peptides at 37° C., dextramer staining; format: cell-based, human; conditions: PBMCs incubated at 37° C., 12 days, relative to untargeted peptide, particularly at lower peptide concentrations
# Procedure: (§1) PBMC from HLA-A2/CMV+ donors were thawed, washed and then incubated with the peptides (5 μg/ml) for 60 min at 4° C. Subsequently, the cells were washed twice and then plated at 2×10^5 cells per well in 96-well tissue culture plate. Cells were cultured for 5 days and subsequently they were pulsed with [^3H] thymidine and harvested 16 h later. In some experiments, the cells were cultured for 12 days and then stained with dextramers specific for pp65 NLVPMVATV (SEQ ID NO:19) epitope. Monocyte-depleted PBMCs were also used. To analyze primary immune responses against pp65 protein, PBMCs from HLA-A2+/CMV-negative donors were used. Autologous DCs were incubated with either NW-pp65 or GA-pp65 peptide (5 μg/ml) at 4° C. for 1 h, followed by three washes to remove unbound peptides. Subsequently, the cells were incubated with CD45RO-depleted PBMC (responder cells) and co-cultured for 10 days at ratio 1/10 (DC to responder cells) in X-vivo 15 medium supplemented with 10 ng/ml human IL-7 for 10 days. After 2 rounds of stimulation (8 days each) with autologous DC loaded with peptides, the cells were stained with dextramers specific for pp65 NLVPMVATV (SEQ ID NO:19) epitope. To test spontaneous uptake of peptides by DCs, PBMCs from HLA-A2+/CMV positive donors were incubated at 37° C. with various concentrations of untargeted or targeted pp65 peptide for 90 min. […]
# [2] = tested on: CD8 T cells specific for the NLVPMVATV epitope; assay: Dextramer staining of CD8 T cells after stimulation with peptide-exposed DCs; format: cell-based, human; conditions: DC-stimulated CD8 T cells, CMV positive donors, equal molar concentrations, n=3
# Procedure: (§2) Peptides at a concentration of 5 μg/ml were incubated with semi mDCs from HLA-A2/CMV-positive donors for 60 min at 4° C. Subsequently, they were washed to remove unbound peptides. Autologous stimulation was done in 96-well tissue culture plates in X-vivo 15 medium. Briefly, DCs were mixed with 10^5 autologous CD4 or CD8 T cells at a DC/lymphocytes ratios of 1/5 and 1/10 in a final volume of 250 μl. Cells were incubated for 5 days and then they were pulsed with [^3H] thymidine and harvested 16 h later. [^3H] thymidine incorporation was measured in a β-scintillation counter. In some experiments, the cells were cultured for 8 days and then stained with dextramers specific for pp65 NLVPMVATV (SEQ ID NO:19) epitope.
# Dextramers with CMV (NLVPMVATV) (SEQ ID NO:19) and HIV (ILKEPVHGV) (SEQ ID NO:22) HLA-A2 specific antigens were obtained from Immudex (Copenhagen, Denmark). Antibodies against human CD8, CD19 and CD56 were obtained from eBioscience (San Diego, Calif., USA). […] Cells were washed and resuspended in SB containing 1% paraformaldehyd and analyzed on a BD SLR II flow cytometer. The data were analyzed using FCS Express (De Novo Software, Los Angeles, Calif., USA).
# [3] = tested on: iDCs; assay: Peptide binding by flow cytometry; set-up: species or system human; conditions: iDCs
# Procedure: The cells were seeded onto 24-well plate (3×10^5/well/0.5 ml) in X-vivo 15 medium and incubated overnight at 37° C. Subsequently, they were incubated with 6IAF-conjugated peptides (5 μg/ml) for 30 min at 37° C., gently scraped, washed 3 times and then analyzed by flow cytometry. Binding was also performed at 4° C.
# [4] = tested on: autologous CD4 or CD8 T cells; assay: Autologous stimulation of T lymphocytes by DCs exposed to targeted pp65 peptides, [3H] thymidine incorporation; format: cell-based, human; conditions: semi mDCs loaded at 4° C., HLA-A2+/CMV positive donors, 5 days
# Procedure: as §2
# The capacity of the NW-pp65 fusion peptide (60-mer) to activate T cells from HLA-A2+/CMV positive donors was evaluated. It should be noted that the 48-mer pp65 peptide contains both MHC class I (e.g. NLVPMVATV) (SEQ ID NO:19) and class II (e.g. AGILARNLVPMVATV (SEQ ID NO:23), FFWDANDIYRI (SEQ ID NO:24)) epitopes, allowing the detection of CD4 and CD8 T-cell responses (24-26). […] All cultures were incubated at 37° C. for 5 days and T-cell activation was determined by measuring their proliferation potential (FIG. 6A). […]
# [5] = tested on: PBMCs; assay: Autologous stimulation of PBMCs with pp65 targeted peptides, [3H] thymidine incorporation; format: cell-based, human; conditions: whole PBMCs, peptides at 4° C., 5 days at 37° C.
# Procedure: as §1
# [6] = tested on: CD8 T cells against NLVPMVATV epitope; assay: Dextramer staining of CD8 T cells after PBMC stimulation with pp65 peptides; format: cell-based, human
# Procedure: PBMC from HLA-A2/CMV+ donors were thawed, washed and then incubated with the peptides (5 μg/ml) for 60 min at 4° C. Subsequently, the cells were washed twice and then plated at 2×10^5 cells per well in 96-well tissue culture plate. Cells were cultured for 5 days and subsequently they were pulsed with [^3H] thymidine and harvested 16 h later. In some experiments, the cells were cultured for 12 days and then stained with dextramers specific for pp65 NLVPMVATV (SEQ ID NO:19) epitope. Monocyte-depleted PBMCs were also used. To analyze primary immune responses against pp65 protein, PBMCs from HLA-A2+/CMV-negative donors were used. Autologous DCs were incubated with either NW-pp65 or GA-pp65 peptide (5 μg/ml) at 4° C. for 1 h, followed by three washes to remove unbound peptides. Subsequently, the cells were incubated with CD45RO-depleted PBMC (responder cells) and co-cultured for 10 days at ratio 1/10 (DC to responder cells) in X-vivo 15 medium supplemented with 10 ng/ml human IL-7 for 10 days. After 2 rounds of stimulation (8 days each) with autologous DC loaded with peptides, the cells were stained with dextramers specific for pp65 NLVPMVATV (SEQ ID NO:19) epitope. To test spontaneous uptake of peptides by DCs, PBMCs from HLA-A2+/CMV positive donors were incubated at 37° C. with various concentrations of untargeted or targeted pp65 peptide for 90 min. Subsequently, the cells were washed to remove unbound peptides and cultured at 37° C. for 12 days and then stained with dextramers specific for pp65 NLVPMVATV (SEQ ID NO:19) epitope.
# Dextramers with CMV (NLVPMVATV) (SEQ ID NO:19) and HIV (ILKEPVHGV) (SEQ ID NO:22) HLA-A2 specific antigens were obtained from Immudex (Copenhagen, Denmark). Antibodies against human CD8, CD19 and CD56 were obtained from eBioscience (San Diego, Calif., USA). Briefly, around 10^6 cells were washed and resuspended in 50 μl staining buffer SB (PBS with 0.1% human serum albumin and 0.1% NaN3) containing 1 mg/ml aggregated α-globulin and then stained with dextramer for 10 min in the dark at room temperature. Subsequently, antibodies against CD8, CD19 and CD56 were added and incubation continued for additional 20 min. Cells were washed and resuspended in SB containing 1% paraformaldehyd and analyzed on a BD SLR II flow cytometer. The data were analyzed using FCS Express (De Novo Software, Los Angeles, Calif., USA).
# Monocytes have the capacity to differentiate into macrophages or inflammatory DCs in-vitro and in-vivo (Auffray et al., (2009) Annu Rev. Immunol. 27, 669-92). Given that the NW peptide bound to blood monocytes, it was investigated whether this binding affects T-cell activation. Therefore, proliferation assays were performed with whole PBMCs. […]
sequence,measurement,setting,value
"NWYLPWLGTNDWGCFTWPPWQAGILARNLVPMVATVQGQNLKYQEFFWDANDIYRIFAEL [NW-60-mer, 48-mer CMV pp65 peptide fused to NW peptide]",expansion of CD8 T cells after uptake at 37° C.,[1],significant expansion of CD8 T cells
same,dextramer-positive CD8 T cells specific for NLVPMVATV,[2],10.50%
same,binding of 6IAF-conjugated pp65 fusion peptides to DCs,[3],bound to iDCs
same,"T-cell activation (proliferation, [3H]-thymidine)",[4],activated both CD8 and CD4 T cells
same,T-cell proliferation ([3H]-thymidine),[5],stimulated T-cell proliferation
same,CTL response (dextramer staining),[6]; monocyte-depleted PBMCs,5.60%
same,CTL response (dextramer staining),"[6]; whole PBMCs, n=3",8.85%
